Measurements published in patent US12590126B2, “Compounds for selective disruption of protein-protein interactions” (SyntheX, Inc., priority 2017, dated 2026).
Where two headings read alike, the source gives them in different places. Each block holds one compound with its values, some of them ahead of it. Where a SMILES comes first, the peptide text is derived from it. [ ]: non-standard residue; d: D form. 2Nal = N[C@@H](Cc1ccc2ccccc2c1)C(=O)O; dNle = CCCC[C@@H](N)C(=O)O; dAbu = CC[C@@H](N)C(=O)O; Ahx = NCCCCCC(=O)O; βAla = NCCC(=O)O

Columns and labels:
SSP-25 cells = experiment: xCELLigence cell death assay in SSP-25 cells (cellular assay for RAD51 inhibition); format: cell-based; details: concentration gradient added at 20 hour mark, only values with R^>0.85 shown
Method: The efficacy of the peptides described herein was assessed by their ability to cause death in SSP-25 cells, which have amplification of RAD51 and are dependent on its activity.
First, 5,000 SSP25 cells were plated, and adherence and growth was measured for 20 hours using live measurements of current impedance through the plate using the xCELLigence™ instrument. At the 20 hour mark, a concentration gradient of each compound or a PBS control was added to the SSP-25 cells, which were cultured in […] RMPI media with 10% FBS. […] Only values with confidence and R^>0.85 are shown.

in vitro [1] = details: mouse, microsomes
Method: (§1) For HLM and MLM stability studies, each compound was incubated with the liver microsome mixture for up to an hour at 37 C in the presence of NADPH.
(§2) After the incubations, the reactions were stopped and the compounds were analyzed according to the method developed for each.

in vitro [2] = details: human, microsomes
Method: as §1, §2

fresh human RBCs = format: cell-based; details: red cells of human, 1 h, 250
Method: To assess the nonspecific lytic properties of each compounds disclosed herein, each mentioned compound was tested for hemolytic properties against fresh human RBCs. Briefly, donor blood was drawn into a K2EDTA anticoagulant tube from multiple O+ donors. The blood was washed 3 times in PBS. RBCs were diluted to 2% in PBS and compounds were added at various concentrations. Samples were incubated at 37 C for 1 hr, then centrifuged at 2200 rpm for 5 min. Supernatants were measured for absorbance at 450 nm or 405 nm. The percentage hemolysis was calculated as lysis relative to 1% Triton X-100 incubation.

in vitro [3] = details: mouse, serum
Method: Serum stability data was obtained using the appropriate animal serum, each incubated with the compound for up to two hours at 37 C.

[4] = Mouse pharmacokinetics, IV and IP dosing; format: in vivo, mice; details: for AUC(0-inf) / AUC(0-t) / C0 / MRT inf / clearance / Vd / half-life: in vivo
Method: The pharmocokinetic parameters in mice by both intravenous (IV) and intraperitoneal (IP) dosing, as well as the serum and microsome stability for each of compound 22, 23, 24, and 25 was determined. Bioanalytical methods were developed for each compound using an LC-MS/MS method with LLOQ>100 ng/ml.
For in-vivo PK work, at least 3 mice were used per timepoint. For each compound, the animals were injected either IV or IP with the compound. IV injections used 1 mg/kg, and IP injections were at 15 mg/kg. Blood was collected at the indicated timepoints and analyzed according to the bioanalytical method developed.

[5] = iv, 1 mg/kg, 1 mg/kg IV, read-out: Vss
[6] = iv, 1 mg/kg, 1 mg/kg IV, read-out: Vz
[7] = iv, 1 mg/kg, 1 mg/kg IV, read-out: t½ (converted)
[8] = iv, 1 mg/kg, IV (1 mg/kg), read-out: Half-life Mouse IV

half-life (in vitro [1]): 41.8 min | half-life (in vitro [2]): 108 min | half-life (in vitro [3]): > 500 min | AUC Extr ([4]; 1 mg/kg IV): 28.5% | AUC(0-inf) ([4]; 1 mg/kg IV): 490 ng·h/mL | AUC(0-t) ([4]; 1 mg/kg IV): 347 ng·h/mL | C0 ([4]; 1 mg/kg IV): 1480 ng/mL | MRT inf ([4]; 1 mg/kg IV): 44.3 min | clearance ([4]; 1 mg/kg IV): 36.1 mL/min/kg | AUC(0-inf) ([4]; 15 mg/kg IP): 341 ng·h/mL | MRT inf ([4]; 15 mg/kg IP): 394 min | Vd [4, 5]: 1.56 L/kg | Vd [4, 6]: 1.71 L/kg | half-life [4, 7]: 33.9 min | half-life [4, 8]: 33.8 min
Compound: CCCC[C@@H](NC(=O)[C@@H](CC(C)C)NC(C)=O)C(=O)N[C@H](CCCNC(=N)N)C(=O)N[C@H](C)C(=O)N[C@@H](C(=O)N[C@H](CCCNC(=N)N)C(=O)N[C@H](CC(C)C)C(=O)N[C@H](CCCNC(=N)N)C(=O)N[C@@H](C(=O)NCCC(=O)N[C@H](CC(C)C)C(=O)N[C@H](CCCNC(=N)N)C(=O)NCCCCCC(=O)N[C@H](CCCNC(=N)N)C(=O)NCCCCCC(=O)N[C@H](CCCNC(=N)N)C(=O)NCCCCCC(=O)N[C@H](CCCNC(=N)N)C(=O)NCCCCCC(=O)N[C@H](CCCNC(=N)N)C(=O)NCCCCCC(=O)N[C@H](CCCNC(=N)N)C(N)=O)C(C)C)C(C)C [Compound 23, Ac-l{d-norLeucine}ravrlrv[beta-ALA]lr(Ahx)r(Ahx)r(Ahx)r(Ahx)r(Ahx)r-NH2] (Ac-[dL][dNle][dR][dA][dV][dR][dL][dR][dV][βAla][dL][dR][Ahx][dR][Ahx][dR][Ahx][dR][Ahx][dR][Ahx][dR]-NH2)
IC50 (SSP-25 cells): 20.6 µM | % Hemolysis (250 uM) (fresh human RBCs): 3%

Compound: CCCC[C@@H](NC(=O)[C@@H](CC(C)C)NC(C)=O)C(=O)N[C@H](CCCNC(=N)N)C(=O)N[C@H](CO)C(=O)N[C@@H](C(=O)N[C@H](CCCNC(=N)N)C(=O)N[C@H](CC(C)C)C(=O)N[C@H](CCCNC(=N)N)C(=O)N[C@@H](C(=O)NCCC(=O)N[C@H](CC(C)C)C(=O)N[C@H](CCCNC(=N)N)C(=O)N[C@H](CCCCN)C(=O)N[C@H](CCCNC(=N)N)C(=O)N[C@H](CCCNC(=N)N)C(=O)N[C@H](CCCNC(=N)N)C(=O)N[C@H](CCCNC(=N)N)C(=O)N[C@H](CCCNC(=N)N)C(=O)NCC(=O)N[C@@H](Cc1ccc2ccccc2c1)C(N)=O)C(C)C)C(C)C [Compound 17, Ac-l{d-norLeucine}rsvdrv[beta-ALA]lrkrrrrrGΦ-NH2] (Ac-[dL][dNle][dR][dS][dV][dR][dL][dR][dV][βAla][dL][dR][dK][dR][dR][dR][dR][dR]G[2Nal]-NH2)
IC50 (SSP-25 cells): 20 µM | % Hemolysis (250 uM) (fresh human RBCs): 32%

half-life (in vitro [1]): 46.2 min | half-life (in vitro [2]): 81.5 min | half-life (in vitro [3]): > 500 min | AUC Extr ([4]; 1 mg/kg IV): 16.8% | Vss ([4]; 15 mg/kg IP): 3.41 L/kg | AUC(0-inf) ([4]; 1 mg/kg IV): 308 ng·h/mL | AUC(0-t) ([4]; 1 mg/kg IV): 254 ng·h/mL | C0 ([4]; 1 mg/kg IV): 750 ng/mL | MRT inf ([4]; 1 mg/kg IV): 33.1 min | clearance ([4]; 1 mg/kg IV): 55.7 mL/min/kg | AUC(0-inf) ([4]; 15 mg/kg IP): 831 ng·h/mL | MRT inf ([4]; 15 mg/kg IP): 1310 min | half-life ([4]; ip, 15 mg/kg, 15 mg/kg IP, read-out: t½ (converted)): 128 min | half-life ([4]; ip, 15 mg/kg, IP (15 mg/kg), read-out: Half-life Mouse IP): 128 min | Vd [4, 5]: 1.8 L/kg | Vd [4, 6]: 1.99 L/kg | half-life [4, 7]: 25.4 min | half-life [4, 8]: 25.4 min
Compound: CCCC[C@@H](NC(=O)[C@@H](CC(C)C)NC(C)=O)C(=O)N[C@H](CCCNC(=N)N)C(=O)N[C@H](CO)C(=O)N[C@@H](C(=O)N[C@H](CCCNC(=N)N)C(=O)N[C@H](CC(C)C)C(=O)N[C@H](CCCNC(=N)N)C(=O)N[C@@H](C(=O)NCC(=O)N[C@H](CC(C)C)C(=O)N[C@H](CCCNC(=N)N)C(=O)NCCCCCC(=O)N[C@H](CCCNC(=N)N)C(=O)NCCCCCC(=O)N[C@H](CCCNC(=N)N)C(=O)NCCCCCC(=O)N[C@H](CCCNC(=N)N)C(=O)NCCCCCC(=O)N[C@H](CCCNC(=N)N)C(=O)NCCCCCC(=O)N[C@H](CCCNC(=N)N)C(N)=O)C(C)C)C(C)C [Compound 25, Ac-l{d-norLeucine}rsvrlrvGlr(Ahx)r(Ahx)r(Ahx)r(Ahx)r(Ahx)r-NH2]
IC50 (SSP-25 cells): 14 µM | % Hemolysis (250 uM) (fresh human RBCs): 4%

Compound: CCCC[C@@H](NC(=O)[C@@H](CCCNC(=N)N)NC(=O)[C@@H](CC(C)C)NC(=O)[C@@H](CCCNC(=N)N)NC(=O)[C@@H](CCCNC(=N)N)NC(=O)[C@@H](CC)NC(=O)[C@@H](CCCNC(=N)N)NC(=O)[C@@H](CCCC)NC(=O)[C@@H](CC(C)C)NC(C)=O)C(=O)NCCC(=O)N[C@H](CC(C)C)C(=O)N[C@H](CCCNC(=N)N)C(=O)N[C@H](CCCCN)C(=O)N[C@H](CCCNC(=N)N)C(=O)N[C@H](CCCNC(=N)N)C(=O)N[C@H](CCCNC(=N)N)C(=O)N[C@H](CCCNC(=N)N)C(=O)N[C@H](CCCNC(=N)N)C(=O)NCC(=O)N[C@@H](Cc1ccc2ccccc2c1)C(N)=O [Compound 18, Ac-l{d-norLeucine}r(abu)rrlr[d-norLeucine][beta-ALA]lrkrrrrrGΦ-NH2] (Ac-[dL][dNle][dR][dAbu][dR][dR][dL][dR][dNle][βAla][dL][dR][dK][dR][dR][dR][dR][dR]G[2Nal]-NH2)
IC50 (SSP-25 cells): 17.8 µM | % Hemolysis (250 uM) (fresh human RBCs): 17%

Compound: CCCC[C@@H](NC(=O)[C@@H](CC(C)C)NC(C)=O)C(=O)N[C@H](CCCNC(=N)N)C(=O)N[C@H](CC)C(=O)N[C@@H](C(=O)N[C@H](CCCNC(=N)N)C(=O)N[C@H](CC(C)C)C(=O)N[C@H](CCCNC(=N)N)C(=O)N[C@@H](C(=O)NCC(=O)N[C@H](CC(C)C)C(=O)N[C@H](CCCNC(=N)N)C(=O)N[C@H](CCCCN)C(=O)N[C@H](CCCNC(=N)N)C(=O)N[C@H](CCCNC(=N)N)C(=O)N[C@H](CCCNC(=N)N)C(=O)N[C@H](CCCNC(=N)N)C(=O)N[C@H](CCCNC(=N)N)C(=O)NCC(=O)N[C@@H](Cc1ccc2ccccc2c1)C(N)=O)C(C)C)C(C)C [Compound 15, Ac-l{d-norLeucine}r(abu)vrlrvGlrkrrrrrGΦ-NH2] (Ac-[dL][dNle][dR][dAbu][dV][dR][dL][dR][dV]G[dL][dR][dK][dR][dR][dR][dR][dR]G[2Nal]-NH2)
IC50 (SSP-25 cells): 7.2 µM | % Hemolysis (250 uM) (fresh human RBCs): 49%

Compound: CCCC[C@@H](NC(=O)[C@@H](CC(C)C)NC(=O)CN(C)S(=O)(=O)c1cccc2c(N(C)C)cccc12)C(=O)N[C@H](CCCNC(=N)N)C(=O)N[C@H](CO)C(=O)N[C@@H](C(=O)N[C@H](CCCNC(=N)N)C(=O)N[C@H](CC(C)C)C(=O)N[C@H](CCCNC(=N)N)C(=O)N[C@@H](C(=O)NCC(=O)N[C@H](CC(C)C)C(=O)N[C@H](CCCNC(=N)N)C(=O)N[C@H](CCCNC(=N)N)C(=O)N[C@H](CCCNC(=N)N)C(=O)N[C@H](CCCNC(=N)N)C(=O)N[C@H](CCCNC(=N)N)C(=O)N[C@H](CCCNC(=N)N)C(=O)N(C)CC(=O)N(C)CC(=O)OC)C(C)C)C(C)C [Compound 20, DANSYL-Sarcosine-l{d-norLeucine}rsvrlrvGlrrrrrr-sarcosine-sarcosine-OMe]
% Hemolysis (250 uM) (fresh human RBCs): 84%

Compound: CCCC[C@@H](NC(=O)[C@@H](CC(C)C)NC(C)=O)C(=O)N[C@H](CCCNC(=N)N)C(=O)N[C@H](CO)C(=O)N[C@@H](C(=O)N[C@H](CCCNC(=N)N)C(=O)N[C@H](CC(C)C)C(=O)N[C@H](CCCNC(=N)N)C(=O)N[C@@H](C(=O)NCC(=O)N[C@H](CC(C)C)C(=O)N[C@H](CCCNC(=N)N)C(=O)N[C@H](CCCNC(=N)N)C(=O)N[C@H](CCCNC(=N)N)C(=O)N[C@H](CCCNC(=N)N)C(=O)N[C@H](CCCNC(=N)N)C(=O)N[C@H](CCCNC(=N)N)C(=O)N(C)CC(=O)N(C)CC(=O)OC)C(C)C)C(C)C [Compound 21, Ac-l{d-norLeucine}rsvrlrvGlrrrrrr-sarcosine-sarcosine-OMe]
IC50 (SSP-25 cells): 25 µM | % Hemolysis (250 uM) (fresh human RBCs): 31%
